Data as given in patent US6833374B2, “Dihydropyrazolo[3,4-d]thieno[2,3-B]pyridinone inhibitors of B7-1” (Wyeth, priority 2002, dated 2004).

Target: T1, B7-1/CD28 (Homo sapiens, UniProt P33681)
T1 sequence (P33681 35-242 limits assumed): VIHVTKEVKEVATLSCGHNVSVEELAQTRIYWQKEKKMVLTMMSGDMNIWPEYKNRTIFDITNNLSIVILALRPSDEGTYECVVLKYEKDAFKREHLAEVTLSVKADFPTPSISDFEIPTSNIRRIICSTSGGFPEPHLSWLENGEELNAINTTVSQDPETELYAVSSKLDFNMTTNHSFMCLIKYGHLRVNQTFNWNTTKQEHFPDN
Test: CD28/B7-1 ELISA (B7-1/CD28 binding inhibition)
Conditions: CD28-Fc coated wells, B7-1-Fc-biotin detection complex
Experimental: Evaluation of B7-1/CD28 Binding Inhibition for Test Compounds
Wells are coated with 300 ng CD28-Fc in carbonate buffer (pH 9.4) overnight at 4° C., blocked with 1% bovine serum albumin in tris-buffered saline (TBS) for 1 h at 22° C. and washed 3 times in TBS prior to assay. The detection complex is formed as follows: B7-1-Fc-biotin, prepared using NHS-LC-biotin (Pierce #21335) according to the manufacturers instructions (4.1 moles biotin/mole Fc), is added at 0.8 ug/ml to streptavidin-alkaline phosphatase (Caltag Sa1008 at 1:1000 in TBS. Gradient dilutions of test compound in dimethylsulfoxide (1% final) are added to this complex and incubated 30 min. at 22° C. Detection complex (+/− inhibitors) is then added to the CD28 coated wells for 25 min. at 22° C., washed 5 times with TBS, developed with the calorimetric substrate pNPP (Pierce #34045) in diethanolamine/MgCl2 buffer (pH 9.5) and read at 405 nm. The inhibition constant (IC50) is calculated by subtracting the background binding and comparing to uninhibited (DMSO alone) controls. The inhibition constant represents the concentration of test compound required to achieve 50% inhibition.

| Structure (SMILES) | IC50 [nM] |
| --- | --- |
| O=c1c2c(-c3cccc(C(F)(F)F)c3)nc3sccc3c2[nH]n1-c1ccc(Cl)cc1 [Example 4, 2-(4-chlorophenyl)-4-[3-(trifluoromethyl)phenyl]-1,2-dihydro-3H-pyrazolo-[3,4-d]thieno[2,3-b]pyridin-3-one] | 500 |
| O=c1c2c(-c3cccc(C(F)(F)F)c3)nc3sccc3c2[nH]n1-c1ccc(F)cc1 [Example 3, 2-(4-Fluorophenyl)-4-[3-(trifluoromethyl)phenyl]1,2-dihydro-3H-pyrazolo[3,4-d]thieno[2,3-b]pyridin-3-one] | 600 |
